Drawing on PubChem BioAssay (NCI), this text covers GI50 and TGI for twelve compounds.

Test systems include CAKI-1 renal; EKVX NSCLC; NCI-H226 lung; NCI-H23 lung; PC-3 prostate; RPMI-8226 leukemia; RXF 393 renal; SF-268 CNS; SK-MEL-2 melanoma; SK-OV-3 ovarian.
Assay in all cases: NCI-60 cell line screen, 48 h

Several values for one entry are separate records, joined by “and”; a condition that tells them apart may be missing. Equal entries are not always repeated.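 The compound was tested at five concentrations on cells cultured in 96-well plates, with a 48-hour exposure period. The concentration for 50% growth inhibition is given as GI50. The concentration for full growth arrest is given as TGI.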

For the compound `COC(=O)C1=CNC=C(C(=O)OC)C1C1=CC(=O)C(C)=CC1=O`, the GI50 was 6.71 µM with CAKI-1 renal; 16.3 µM in the assay on EKVX NSCLC; 5.35 µM in the assay with NCI-H226 lung; 16.5 µM in the assay with NCI-H23 lung; 16.3 µM in the assay on PC-3 prostate; 2.9 µM in the assay on RPMI-8226 leukemia. Besides, the GI50 is 31.1 µM in the assay on RXF 393 renal, 9.82 µM in the assay on SF-268 CNS, 16.6 µM in the assay on SK-MEL-2 melanoma and 17.6 µM with SK-OV-3 ovarian. For the same compound, the TGI amounted to 19.4 µM in the assay on CAKI-1 renal; 30 µM in the assay on EKVX NSCLC; 17.2 µM in the assay on NCI-H226 lung; 31 µM in the assay with NCI-H23 lung; 30.5 µM in the assay on PC-3 prostate; 7.5 µM with RPMI-8226 leukemia. The TGI in the assay with RXF 393 renal is above 54.2 µM; in the assay with SF-268 CNS it was 24.6 µM; in the assay on SK-MEL-2 melanoma it was 30.9 µM; in the assay with SK-OV-3 ovarian, 37.3 µM.
`COC1=C(C)C(=O)c2c(c(COC(N)=O)c3n2CC2C3N2C)C1=O` (configuration not stated): the TGI in the assay with CAKI-1 renal is 0.059 µM; with EKVX NSCLC it was 0.376 µM; in the assay with NCI-H226 lung, 0.337 µM; in the assay on NCI-H23 lung it was below 0.0363 µM; in the assay on PC-3 prostate, 0.244 µM; with RPMI-8226 leukemia it was 0.117 µM. In addition, the TGI amounted to 0.0671 µM in the assay on RXF 393 renal, 0.6 µM with SF-268 CNS, 0.109 µM in the assay with SK-MEL-2 melanoma and 0.167 µM in the assay on SK-OV-3 ovarian.
On to `COc1ccc(Cn2cc3c(c2-c2ccccc2)CC(C)(C)c2cnoc2-3)cc1`, for which the GI50 was 1.22 µM in the assay with CAKI-1 renal; 1.99 µM in the assay on EKVX NSCLC; 4.19 µM in the assay on NCI-H226 lung; 2.29 µM with NCI-H23 lung; 3.27 µM with PC-3 prostate; 3.09 µM in the assay with RPMI-8226 leukemia. Also, the GI50 in the assay with RXF 393 renal was 2.45 µM; in the assay on SF-268 CNS, 3.92 µM; in the assay on SK-MEL-2 melanoma, 2.9 µM; in the assay with SK-OV-3 ovarian, 4.09 µM. The TGI in the assay with CAKI-1 renal, in the assay with EKVX NSCLC, in the assay with NCI-H226 lung, in the assay on NCI-H23 lung, in the assay with PC-3 prostate and in the assay with RPMI-8226 leukemia was above 100 µM each time. For the same compound, the TGI in the assay with RXF 393 renal is above 100 µM; in the assay with SF-268 CNS, above 100 µM; in the assay with SK-MEL-2 melanoma, 53.6 µM; in the assay with SK-OV-3 ovarian it was above 100 µM.
For `COc1cccc2c1C(=O)c1c(O)c3c(c(O)c1C2=O)C[C@@](O)(C(C)=O)C[C@@H]3OC1OC(C)C(O)C(N)C1Br` (some centres not stated), the TGI with CAKI-1 renal is 0.257 µM; in the assay on EKVX NSCLC, 5.04 µM and 1.98 µM; in the assay with NCI-H226 lung it was 0.0714 µM and 0.0818 µM; in the assay with NCI-H23 lung, 0.206 µM and 0.177 µM; in the assay with PC-3 prostate, 1.03 µM; in the assay with RPMI-8226 leukemia, 0.702 µM and 0.263 µM. The TGI with RXF 393 renal is 0.661 µM and 0.864 µM; in the assay with SF-268 CNS, 3.63 µM and 1.21 µM; in the assay on SK-MEL-2 melanoma, 0.715 µM and 0.704 µM; with SK-OV-3 ovarian it was 0.288 µM and 0.323 µM. For the same compound, the GI50 was 0.195 µM with EKVX NSCLC; 0.0134 µM with NCI-H226 lung; 0.0174 µM with NCI-H23 lung; 0.0124 µM in the assay on RPMI-8226 leukemia; 0.0365 µM with SF-268 CNS; 0.198 µM in the assay on SK-MEL-2 melanoma. In addition, the GI50 in the assay with SK-OV-3 ovarian is 0.0314 µM.
For `NS(=O)(=O)c1ccc(N=Nc2c(O)[nH]c3ccc(-c4cnco4)cc23)cc1`, the GI50 with CAKI-1 renal, with EKVX NSCLC, in the assay on NCI-H226 lung, with NCI-H23 lung, in the assay with PC-3 prostate and with RPMI-8226 leukemia was above 25 µM in each case. The GI50 is above 19.6 µM with RXF 393 renal, above 25 µM in the assay on SF-268 CNS, above 25 µM in the assay with SK-MEL-2 melanoma and above 25 µM in the assay with SK-OV-3 ovarian. Also, the TGI with CAKI-1 renal, in the assay on EKVX NSCLC, in the assay with NCI-H226 lung, in the assay on NCI-H23 lung, in the assay with PC-3 prostate and with RPMI-8226 leukemia was above 25 µM throughout. In addition, the TGI in the assay on RXF 393 renal, in the assay on SF-268 CNS, in the assay with SK-MEL-2 melanoma and in the assay with SK-OV-3 ovarian was above 25 µM each time.
In the case of `COc1cc2c3c(n(CCCNC(=O)OCC4c5ccccc5-c5ccccc54)c(=O)c2cc1OC)-c1cc2c(cc1/C3=C\CCNC(=O)OCC1c3ccccc3-c3ccccc31)OCO2`, the GI50 with CAKI-1 renal was above 13.8 µM; with EKVX NSCLC it was above 50 µM; in the assay with NCI-H226 lung it was above 50 µM; in the assay on NCI-H23 lung, 0.921 µM; in the assay with PC-3 prostate, above 50 µM; in the assay with RPMI-8226 leukemia, above 26.3 µM. The GI50 is 5.28 µM with RXF 393 renal, 1.48 µM with SF-268 CNS, above 10.2 µM in the assay with SK-MEL-2 melanoma and above 25.6 µM in the assay on SK-OV-3 ovarian. In addition, the TGI in the assay with CAKI-1 renal was above 46.1 µM; with EKVX NSCLC, above 50 µM; in the assay on NCI-H226 lung, above 50 µM; with NCI-H23 lung, 9.54 µM; in the assay on PC-3 prostate, above 50 µM; in the assay on RPMI-8226 leukemia, 48.9 µM. The TGI is 14.6 µM with RXF 393 renal, above 14 µM in the assay with SF-268 CNS, above 21.6 µM in the assay with SK-MEL-2 melanoma and above 50 µM in the assay with SK-OV-3 ovarian.
On to `O=C(N/N=C/c1ccccc1)c1c(-c2cccnc2)cnc2ccccc12`, for which the TGI in the assay with CAKI-1 renal, in the assay on EKVX NSCLC, in the assay on NCI-H226 lung, in the assay with NCI-H23 lung, in the assay with PC-3 prostate and in the assay with RPMI-8226 leukemia was above 100 µM throughout. Also, the TGI in the assay with RXF 393 renal, in the assay with SF-268 CNS, in the assay on SK-MEL-2 melanoma and with SK-OV-3 ovarian was above 100 µM throughout.
In the case of `Oc1cccnc1CN1CCCCC1`, the TGI in the assay with CAKI-1 renal, in the assay on EKVX NSCLC, in the assay with NCI-H226 lung, in the assay on NCI-H23 lung, with PC-3 prostate and in the assay with RPMI-8226 leukemia was above 100 µM each time. In addition, the TGI in the assay with RXF 393 renal, in the assay on SF-268 CNS, with SK-MEL-2 melanoma and with SK-OV-3 ovarian was above 100 µM throughout.
Regarding `O=C(NC1=CC(=O)c2ccccc2C1=O)c1ccccc1`, the GI50 with CAKI-1 renal was 1.74 µM; in the assay on EKVX NSCLC it was 0.729 µM; in the assay with NCI-H226 lung it was 2.67 µM; in the assay with NCI-H23 lung, 1.12 µM; with PC-3 prostate it was 0.421 µM; with RPMI-8226 leukemia, 0.355 µM. For the same compound, the GI50 was 1.4 µM in the assay on RXF 393 renal, 1.21 µM with SF-268 CNS, 0.534 µM in the assay with SK-MEL-2 melanoma and 3.06 µM in the assay with SK-OV-3 ovarian. Moreover, the TGI in the assay on CAKI-1 renal is 3.54 µM; in the assay with EKVX NSCLC it was 7.63 µM; in the assay with NCI-H226 lung, 15.7 µM; with NCI-H23 lung, 9.5 µM; in the assay with PC-3 prostate, 2.44 µM; in the assay with RPMI-8226 leukemia, above 100 µM. In addition, the TGI was 3.12 µM in the assay with RXF 393 renal, 13.8 µM in the assay with SF-268 CNS, 15.7 µM in the assay with SK-MEL-2 melanoma and 14.3 µM in the assay with SK-OV-3 ovarian.
Regarding `COc1cc2ncnc(Nc3ccc(C)c(O)c3)c2cc1OC`, the GI50 in the assay on CAKI-1 renal was 1.99 µM; with EKVX NSCLC, 6.3 µM; in the assay with NCI-H226 lung, 20.5 µM; in the assay on NCI-H23 lung, above 25 µM; with PC-3 prostate it was above 19.8 µM; with RPMI-8226 leukemia it was above 25 µM. Besides, the GI50 with RXF 393 renal was 5.48 µM; in the assay with SF-268 CNS, above 19.2 µM; in the assay with SK-MEL-2 melanoma, above 13.4 µM; with SK-OV-3 ovarian, 1.32 µM. For the same compound, the TGI in the assay with CAKI-1 renal was above 17.5 µM; in the assay on EKVX NSCLC, above 25 µM; with NCI-H226 lung, above 25 µM; in the assay with NCI-H23 lung it was above 25 µM; in the assay on PC-3 prostate, above 25 µM; in the assay on RPMI-8226 leukemia it was above 25 µM. Moreover, the TGI in the assay with RXF 393 renal was 19.2 µM; in the assay with SF-268 CNS, above 25 µM; in the assay on SK-MEL-2 melanoma, above 20 µM; in the assay with SK-OV-3 ovarian, above 19.9 µM.
With `O=C(O)C1OC(n2cc(F)c(=O)[nH]c2=O)CC1O` (configuration not stated), the TGI in the assay on CAKI-1 renal, in the assay on EKVX NSCLC, in the assay on NCI-H226 lung, in the assay with NCI-H23 lung, in the assay on PC-3 prostate and in the assay on RPMI-8226 leukemia was above 100 µM throughout. Moreover, the TGI in the assay on RXF 393 renal, in the assay with SF-268 CNS, in the assay on SK-MEL-2 melanoma and in the assay with SK-OV-3 ovarian was above 100 µM each time.
Take `Clc1ccc(C2=Nn3c(COc4ccccc4Cl)nnc3SC2)c(Cl)c1`: the GI50 was 25.9 µM with CAKI-1 renal; 23.7 µM with EKVX NSCLC; 14.6 µM in the assay on NCI-H226 lung; 15.5 µM in the assay on NCI-H23 lung; 37.2 µM in the assay on PC-3 prostate; 44.7 µM in the assay on RPMI-8226 leukemia. Besides, the GI50 with RXF 393 renal was 28.6 µM; with SF-268 CNS, 31.8 µM; in the assay with SK-MEL-2 melanoma, 25.1 µM; in the assay with SK-OV-3 ovarian, 28.1 µM. Besides, the TGI with CAKI-1 renal was 76.7 µM; in the assay on EKVX NSCLC it was 80.8 µM; in the assay with NCI-H226 lung it was 41.6 µM; in the assay with NCI-H23 lung it was 39.6 µM; with PC-3 prostate, above 100 µM; in the assay on RPMI-8226 leukemia, above 100 µM. Besides, the TGI in the assay on RXF 393 renal is above 100 µM; with SF-268 CNS, above 100 µM; in the assay on SK-MEL-2 melanoma it was 57.4 µM; with SK-OV-3 ovarian, 86.3 µM.
